Data on two molecules can be found in patent US20200239530A1, “COMPOUNDS AND METHODS OF MODULATING PROTEIN DEGRADATION” (Vividion Therapeutics, Inc., priority 2017, published 2020).

The target in assay [1] is T1, EEF1A1 Elongation factor 1-alpha 1 (Homo sapiens, UniProt P68104).
T1 construct: 200 μL of lysate containing 5 mg/ml proteome was treated with 2 μL of 100× compound stock; endogenous in cells
T1 sequence (P68104 1-462): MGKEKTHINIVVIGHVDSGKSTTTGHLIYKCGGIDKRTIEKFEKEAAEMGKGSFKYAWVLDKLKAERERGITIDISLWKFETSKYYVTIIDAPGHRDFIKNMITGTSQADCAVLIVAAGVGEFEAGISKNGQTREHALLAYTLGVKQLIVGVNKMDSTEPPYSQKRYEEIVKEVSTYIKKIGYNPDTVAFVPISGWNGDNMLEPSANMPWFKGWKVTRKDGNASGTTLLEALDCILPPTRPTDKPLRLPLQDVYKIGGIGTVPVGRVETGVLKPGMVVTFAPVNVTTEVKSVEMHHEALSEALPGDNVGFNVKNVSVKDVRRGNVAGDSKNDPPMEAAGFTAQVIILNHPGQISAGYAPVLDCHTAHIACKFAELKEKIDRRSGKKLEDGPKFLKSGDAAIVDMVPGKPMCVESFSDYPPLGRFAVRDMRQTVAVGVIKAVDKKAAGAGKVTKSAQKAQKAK
Description: Cysteine liganding, probe competition. Format: binding. The method in brief:
(§1)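 Read-out is loss of desthiobiotin iodoacetamide labelling at cysteines, measured on streptavidin-enriched tryptic peptides. Compound preincubation ran 1 hr at 25° C in PBS lysate holding 5 mg/ml proteome before the probe was added.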

Assay [2] addresses T2, TRMT1L TRMT1-like protein (Homo sapiens, UniProt Q7Z2T5).
T2 construct: Cells were resuspended in cold PBS on ice and sonicated with a probe sonicator to achieve lysis; endogenous in cells
T2 sequence (Q7Z2T5 1-733): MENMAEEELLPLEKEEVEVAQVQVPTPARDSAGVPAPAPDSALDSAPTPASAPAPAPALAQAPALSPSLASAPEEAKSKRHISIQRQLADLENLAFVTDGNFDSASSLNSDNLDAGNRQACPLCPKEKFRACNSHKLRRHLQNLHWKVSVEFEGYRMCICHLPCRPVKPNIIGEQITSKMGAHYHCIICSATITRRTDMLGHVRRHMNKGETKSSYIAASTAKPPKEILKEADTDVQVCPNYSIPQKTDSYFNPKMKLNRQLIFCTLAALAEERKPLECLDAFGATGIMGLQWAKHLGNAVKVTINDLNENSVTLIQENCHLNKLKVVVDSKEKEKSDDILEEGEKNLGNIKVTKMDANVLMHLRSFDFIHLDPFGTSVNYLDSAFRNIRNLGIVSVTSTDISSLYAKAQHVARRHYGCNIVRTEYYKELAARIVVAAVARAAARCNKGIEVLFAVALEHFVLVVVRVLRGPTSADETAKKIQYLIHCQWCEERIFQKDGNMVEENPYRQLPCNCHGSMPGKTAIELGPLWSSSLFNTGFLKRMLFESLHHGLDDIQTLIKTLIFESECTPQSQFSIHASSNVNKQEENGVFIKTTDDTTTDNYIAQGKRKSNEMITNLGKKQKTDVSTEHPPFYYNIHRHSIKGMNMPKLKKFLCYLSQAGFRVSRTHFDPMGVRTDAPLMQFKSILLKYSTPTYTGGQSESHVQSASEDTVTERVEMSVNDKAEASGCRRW
Put plainly: Cysteine liganding, probe competition. Format: binding. The method in brief: as §1

[3] abbreviates: EEF1A1 Res# 363, uniprot P68104.
Setting [4] is: EEF1A1 Res# 370, uniprot P68104.
The mark [5] stands for this setting: uniprot Q7Z2T5, in % (unit assumed).

`COc1ccc2c(c1)CCCN2C(=O)CCl` [KB02]: the Liganded result is “YES” in assay [1] (setting [3]); “YES” in assay [1] (setting [4]); “YES” in assay [2] (TRMT1L Res# 239, uniprot Q7Z2T5).

In the case of `O=C(CCl)Nc1cc(C(F)(F)F)cc(C(F)(F)F)c1` [KBO3], the Liganded result in assay [1] (setting [3]) is listed as “YES”. The Liganded result in assay [1] (setting [4]) is recorded as “YES”. In assay [2] (uniprot Q7Z2T5), the 100 ave is given as −17.83 and the 500 ave worked out at 36.38. In assay [2] (setting [5]), the “100 Max” value is recorded as −4.62 and the “500 Max” value is on record as 36.38.
